Measurements published in PubChem BioAssay AID1918948 (Molecular Pharmacology Branch, DTP, NCI, 2023).

Test system: K-562 leukemia growth, % test/control
Experiment: Anticancer human tumor K-562 cell line growth inhibition;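 further: spheroids exposed to compounds for 7 days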;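 on viability, T/C: 100% = DMSO vehicle wells and lower values mean fewer viable cells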
Details: spheroids with HUVEC and MSC; for IC50: curve of first compound; for viability, T/C: stronger effect = lower value; active means viability on the fitted dose curve at most 10% of control; inactive means the rest
Source text: Multicellular complex tumor spheroid response to LSD1 Inhibitor Iadademstat in combination with a variety of drugs and investigational agents in selected tumor cell lines
The current study was undertaken to assess response to LSD1 inhibitors in combination with standard-of-care drugs and investigational agents in solid tumor complex spheroid models as well as in the K-562 leukemia. Complex spheroids include a stromal component modeled by human endothelial cells (HUVEC) and fibroblasts modeled by human mesenchymal stem cells (MSCs). The concentration ranges selected for each drug and investigational agent were based upon clinically achievable concentrations if the clinical Cmax of the agent was known.
Compounds. The drugs and investigational agents used in this study are listed on Table 1. All of the agents used, including staurosporine (NSC755774) and gemcitabine (NSC613327), were obtained from the Developmental Therapeutics Program, NCI. FDA-approved anticancer drugs are available from the NCI at http://dtp.nci.nih.gov/branches/dscb/oncology_drugset_explanation.html. Drugs and investigational agents were >95% pure by proton nuclear magnetic resonance (NMR) and liquid chromatography/mass spectrometry (LC/MS). Stock solutions were prepared at 400x in DMSO, stored at -70 degrees C, and diluted in fresh medium prior to their use. The final concentration of DMSO in cell culture wells never exceeded 0.25% (v/v). The FDA-approved anticancer drug set is available from the Developmental Therapeutics Program at https://dtp.cancer.gov/organization/dscb/obtaining/available_plates.htm. All drugs and investigational agents were tested over a range starting from a high concentration at or near the clinical Cmax and decreasing in half-log increments. If the clinical Cmax for an agent had not been determined, the highest concentration tested was 10 microM.
Cell Lines. The patient-derived cancer cell (PDC) lines: 292921-168-R-J2-PDC, K24384-001-R-PDC, and 521955-158-R2-J5-PDC pancreatic carcinomas, 556581-035-R-J1 ovarian carcinoma, 324938-238-R-J1-PDC, 855422-203-R-J1-PDC and 883617-216-R-J1-PDC urothelial bladder carcinomas, 743489-274-T-PDC renal cell carcinoma, 138582-R-J1 Merkel cell tumor, K60290-347-R-J1 and K57222-313-R-J1-PDC glioblastomas, 653999-131-R-J2-PDC, LG0703-F948-PDC, and 349418-098-R-PDC non-small cell lung carcinomas, 885512-296-R-J2-PDC, 171881-019-R-J1-PDC breast carcinomas and 186277-243-T-J2-PDC and 233499-124-R-J2-PDC colon carcinomas were obtained from the NCI Patient-Derived Models Repository (PDMR, https://pdmr.cancer.gov). The established cell lines NCI/ADR-RES (RRID:CVCL_14520 and OVCAR-5 (RRID:CVCL_1628) ovarian carcinomas, 786-O (RRID:CVCL_1051) and A498 (RRID:CVCL_A498) renal cell carcinoma, NCI-H211 (ATCC, cat. CRL-5824; RRID:CVCL_1529), NCI-H196 (ATCC, cat. CRL-5823, RRID:CVCL_1509), SW 1271 (ATCC, cat. CRL-2177, RRID:CVCL_1716) and NCI-H1876 (ATCC, cat. CRL-5902, RRID:CVCL_1503) small cell lung carcinomas, MDA-MB-231 (RRID:CVCL_0062) and MDA-MB-468 (RRID:CVCL_0419)breast carcinomas (10-12). Pooled donor human umbilical vein endothelial cells (HUVEC, Lonza, cat. CC-2519) and human mesenchymal stem cells (hMSC, Lonza, cat. PT-2501) were purchased from Lonza (Walkersville, MD).
Cell Culture. All cells were maintained in an incubator at 37 degrees C and 5% CO2 with 95% humidity. The PDC lines were cultured according to standard operating procedures established by the NCI PDMR (https://pdmr.cancer.gov). Briefly all PDCs were thawed and cultured in Matrigel-coated flasks prepared with a working solution of 1X Ham's F-12 nutrient mix, without supplementation (Invitrogen, Waltham, MA, cat. 11765054), 100 U/mL penicillin-streptomycin (Invitrogen, cat. 15140122), and 2.5% Matrigel (Corning Inc., Corning, NY, cat. 354248) for the first three passages. […]

CC[C@@]1(O)C(=O)OCc2c1cc1n(c2=O)Cc2cc3c(CN(C)C)c(O)ccc3nc2-1 + NC1CC1c1ccc(-c2cccc(O)c2)cc1
active: viability, T/C (second compound 0.1 µM, first compound 0.1 µM) 8.32% | viability, T/C (second compound 0.316 µM, first compound 0.1 µM) 5.85% | viability, T/C (second compound 1 µM, first compound 0.1 µM) 6.28% | viability, T/C (second compound 3.16 µM, first compound 0.1 µM) 6.02% | viability, T/C (second compound 10 µM, first compound 0.0316 µM) 9.44% | viability, T/C (second compound 10 µM, first compound 0.1 µM) 3.98%
0.00419 µM: IC50 (second compound 10 µM)
0.00574 µM: IC50 (second compound 0.316 µM)
0.00767 µM: IC50 (second compound 0.1 µM)
0.00498 µM: IC50 (second compound 3.16 µM)
0.0054 µM: IC50 (second compound 1 µM)
inactive: viability, T/C (second compound 0.1 µM, first compound 0.000316 µM) 113% | viability, T/C (second compound 0.1 µM, first compound 0.001 µM) 107% | viability, T/C (second compound 0.1 µM, first compound 0.00316 µM) 61.6% | viability, T/C (second compound 0.1 µM, first compound 0.01 µM) 50.7% | viability, T/C (second compound 0.1 µM, first compound 0.0316 µM) 18.9% | viability, T/C (second compound 0.316 µM, first compound 0.000316 µM) 109% | viability, T/C (second compound 0.316 µM, first compound 0.001 µM) 106% | viability, T/C (second compound 0.316 µM, first compound 0.00316 µM) 60.2% | viability, T/C (second compound 0.316 µM, first compound 0.01 µM) 38.5% | viability, T/C (second compound 0.316 µM, first compound 0.0316 µM) 13.9% | viability, T/C (second compound 1 µM, first compound 0.000316 µM) 107% | viability, T/C (second compound 1 µM, first compound 0.001 µM) 100% | viability, T/C (second compound 1 µM, first compound 0.00316 µM) 59.9% | viability, T/C (second compound 1 µM, first compound 0.01 µM) 36.5% | viability, T/C (second compound 1 µM, first compound 0.0316 µM) 12% | viability, T/C (second compound 3.16 µM, first compound 0.000316 µM) 104% | viability, T/C (second compound 3.16 µM, first compound 0.001 µM) 99.7% | viability, T/C (second compound 3.16 µM, first compound 0.00316 µM) 56.5% | viability, T/C (second compound 3.16 µM, first compound 0.01 µM) 35.1% | viability, T/C (second compound 3.16 µM, first compound 0.0316 µM) 11% | viability, T/C (second compound 10 µM, first compound 0.000316 µM) 99.4% | viability, T/C (second compound 10 µM, first compound 0.001 µM) 94.9% | viability, T/C (second compound 10 µM, first compound 0.00316 µM) 52.4% | viability, T/C (second compound 10 µM, first compound 0.01 µM) 29.4%

COc1cc(C2c3cc4c(cc3C(OC3OC5COC(C)OC5C(O)C3O)C3COC(=O)C23)OCO4)cc(OC)c1O (stereo not given) + NC1CC1c1ccc(-c2cccc(O)c2)cc1
0.0211 µM: IC50 (second compound 3.16 µM)
active: viability, T/C (second compound 0.1 µM, first compound 3 µM) 1.51% | viability, T/C (second compound 0.316 µM, first compound 0.949 µM) 4.21% | viability, T/C (second compound 0.316 µM, first compound 3 µM) 1.39% | viability, T/C (second compound 1 µM, first compound 0.949 µM) 3.44% | viability, T/C (second compound 1 µM, first compound 3 µM) 2.06% | viability, T/C (second compound 3.16 µM, first compound 0.949 µM) 3.6% | viability, T/C (second compound 3.16 µM, first compound 3 µM) 2.13% | viability, T/C (second compound 10 µM, first compound 0.949 µM) 2.21% | viability, T/C (second compound 10 µM, first compound 3 µM) 1.35%
0.0252 µM: IC50 (second compound 1 µM)
inactive: viability, T/C (second compound 0.1 µM, first compound 0.00949 µM) 89.1% | viability, T/C (second compound 0.1 µM, first compound 0.03 µM) 34.1% | viability, T/C (second compound 0.1 µM, first compound 0.0949 µM) 40% | viability, T/C (second compound 0.1 µM, first compound 0.3 µM) 32.2% | viability, T/C (second compound 0.1 µM, first compound 0.949 µM) 5.98% | viability, T/C (second compound 0.316 µM, first compound 0.00949 µM) 82.5% | viability, T/C (second compound 0.316 µM, first compound 0.03 µM) 33.9% | viability, T/C (second compound 0.316 µM, first compound 0.0949 µM) 40% | viability, T/C (second compound 0.316 µM, first compound 0.3 µM) 26.1% | viability, T/C (second compound 1 µM, first compound 0.00949 µM) 76.1% | viability, T/C (second compound 1 µM, first compound 0.03 µM) 31.1% | viability, T/C (second compound 1 µM, first compound 0.0949 µM) 39% | viability, T/C (second compound 1 µM, first compound 0.3 µM) 22.8% | viability, T/C (second compound 3.16 µM, first compound 0.00949 µM) 68.8% | viability, T/C (second compound 3.16 µM, first compound 0.03 µM) 28.7% | viability, T/C (second compound 3.16 µM, first compound 0.0949 µM) 40.2% | viability, T/C (second compound 3.16 µM, first compound 0.3 µM) 20% | viability, T/C (second compound 10 µM, first compound 0.00949 µM) 57.5% | viability, T/C (second compound 10 µM, first compound 0.03 µM) 28.1% | viability, T/C (second compound 10 µM, first compound 0.0949 µM) 34.1% | viability, T/C (second compound 10 µM, first compound 0.3 µM) 14.8%
0.0323 µM: IC50 (second compound 0.1 µM)
0.0292 µM: IC50 (second compound 0.316 µM)
0.0124 µM: IC50 (second compound 10 µM)
